Experimental findings from ChEMBL document CHEMBL1157959, “Pimarane diterpene and cytochalasin derivatives from the endophytic fungus Eutypella scoparia PSU-D44” (2006) are described below.

In one test the test system is Staphylococcus aureus. The test is described as follows: Antimicrobial activity against Staphylococcus aureus ATCC 25923. The format is functional.
In another test the test system is Nannizzia gypsea. The test is described as follows: Antimicrobial activity against Microsporum gypseum SH-MU-4. The class given is functional.

Converted amounts (≈) assume the structure as drawn.

On to `C=C[C@]1(C)C=C2C(=O)[C@]3(O)OC[C@@]4(CCCC(C)(C)[C@@]43O)[C@@]2(O)[C@H](O)C1` [DIAPORTHEIN B], for which, in the test on Staphylococcus aureus, inhibition of growth (MIC) required 87.8 µM (≈ 32 µg/mL).

In the test on Nannizzia gypsea, `COc1ccc(C[C@@H]2NC(=O)[C@@]34OC(=O)O/C=C/[C@@](C)(O)C(=O)[C@@H](C)C/C=C/[C@H]3[C@H](O)[C@](C)(O)[C@@H](C)[C@@H]24)cc1` [SCOPARASIN B] had a minimal inhibitory concentration (MIC) of 30.3 µM (≈ 16.5 µg/mL). In other words, the double-digit micromolar range.

As a reminder, the MIC is the least concentration at which growth counts as inhibited. Low readings indicate inhibition by little substance, high ones a need for much substance.
